Reference: US12492184B2, “Heteroaryl compounds, preparation methods and uses thereof” (InventisBio Co., Ltd., priority 2020, dated 2025)

System: HEK-Blue IL23 Reporter
Assay: HEK-Blue IL-23 STAT3 Reporter Assay
Assay type: cell-based, human
Details: HEK-Blue IL23 cells stimulated with IL-23 overnight; SEAP read with QUANTI-Blue at OD655
Experimental: HEK-Blue IL23 cells (InvivoGen catalog #HKB-IL23) are designed for the detection of bioactive IL-23 by monitoring the activation of the STAT3 pathway. They were generated by stably introducing the genes for the human IL-23 receptor, STAT3, and the SEAP (secreted embryonic alkaline phosphatase) reporter gene into human HEK293 cell line.
Briefly, around 50,000 cells in DMEM medium supplemented with 10% heat inactivated FBS (˜180 ul) were seeded into each well and incubate for 48 hours at 37° C. with 5% CO2 in air. On day 3, one microliter of compound and 20 ul IL-23 were transferred to the assay plate respectively. The plate was left in the 37° C. incubator overnight. Two microliter of cell supernatant was transferred to a 384-well plate, and 18 ul of resuspended QUANTI-Blue solution was added to each well. SLAP levels were determined using Tecan Spark at OD655.
Cells with no IL23 added were used as Low control. Cells stimulated with IL23 were used as High control. Inhibition rate was calculated with the formula of % inhibition=100*(High control−Treated Well)/(High Control−Low control). IL-23 reporter assay inhibition IC50 was calculated with the equation of Y=Bottom+(Top-Bottom)/(1+10^((Log IC50−X)*HillSlope)).

Row | Compound | IC50 [nM]
1 | [2H]C([2H])([2H])NC(=O)c1nnc(NC(=O)C2CC2)cc1Nc1nccc2c1S(C)(=O)=NC2 (stereo not shown) [Compound 57] | 51.7
2 | [2H]C([2H])([2H])NC(=O)c1nnc(NC(=O)[C@H]2CC23CC3)cc1Nc1ncccc1S(C)(=O)=NC (stereo partly shown) [Compound 98] | 188
3 | [2H]C([2H])([2H])NC(=O)c1nnc(NC(=O)C2CCCC2)cc1Nc1nccc2c1S(C)(=O)=NC2 (stereo not shown) [Compound 90] | 4.2
4 | [2H]C([2H])([2H])NC(=O)c1nnc(NC(=O)[C@H]2CC23CC3)cc1Nc1ncccc1S1(=O)=NCCC1 (single isomer, unassigned) [Compound 94] | 137

Same assay, conditions: Homo sapiens, HEK-Blue IL-23, HEK-Blue IL23 cells stimulated with IL-23 overnight; SEAP read with QUANTI-Blue at OD655

Row | Compound | IC50 [nM]
5 | [2H]C([2H])([2H])NC(=O)c1nnc(NC(=O)C2CC2)cc1Nc1ncc(OC[C@H](C)OC=O)cc1S(C)(=O)=O [Compound 74] | 2.2
6 | [2H]C([2H])([2H])NC(=O)c1cnc(NC(=O)C2CC2)cc1Nc1ncc(C2CC2)cc1S(C)(=O)=O [Compound 77] | 1.1
7 | [2H]C([2H])([2H])NC(=O)c1nnc(NC(=O)C2CC2)cc1Nc1ncc(Cl)cc1S(C)(=O)=O [Compound 52] | 2.5
8 | [2H]C([2H])([2H])NC(=O)c1nnc(NC(=O)[C@H]2CC23CC3)cc1Nc1ncc(OCC(C)(C)O)cc1S(C)(=O)=O [Compound 111] | 7.5
9 | [2H]C([2H])([2H])NC(=O)c1nnc(NC(=O)[C@H]2CC23CC3)cc1Nc1nc(C)sc1S(C)(=O)=O [Compound 127] | 6.4
10 | [2H]C([2H])([2H])NC(=O)c1nnc(NC(=O)C2CC2)cc1Nc1ncc(F)cc1S(C)(=O)=O [Compound 45] | 1.5
11 | [2H]C([2H])([2H])NC(=O)c1nnc(NC(=O)C2CC2)cc1Nc1ncc(N2CCOC[C@@H]2C)cc1S(C)(=O)=O [Compound 82] | 9
12 | [2H]C([2H])([2H])NC(=O)c1nnc(NC(=O)[C@H]2CC23CC3)cc1Nc1ncc(C(F)F)cc1S(C)(=O)=O [Compound 105] | 6.7
13 | [2H]C([2H])([2H])NC(=O)c1nnc(NC(=O)C2CC2)cc1Nc1ncc(N2CCOC[C@H]2C)cc1S(C)(=O)=O [Compound 65] | 0.5
14 | [2H]C([2H])([2H])NC(=O)c1nnc(NC(=O)[C@H]2CC23CC3)cc1Nc1ncc(Cl)cc1S(C)(=O)=O [Compound 102] | 3.7
15 | [2H]C([2H])([2H])NC(=O)c1nnc(NC(=O)C2CC(OC)C2)cc1Nc1ncc(OC)cc1S(C)(=O)=O (stereo not shown) [Compound 36] | 5.6
16 | [2H]C([2H])([2H])NC(=O)c1nnc(NC(=O)C2CC23CC3)cc1Nc1ncc(OC)cc1S(C)(=O)=O (stereo not shown) [Compound 1] | 3.5
17 | [2H]C([2H])([2H])NC(=O)c1nnc(NC23CC(C2)C3)cc1Nc1ncccc1S(C)(=O)=O [Compound 20] | 195
18 | [2H]C([2H])([2H])NC(=O)c1nnc(NC(=O)C2CC2)cc1Nc1ncc(C(F)(F)F)cc1S(C)(=O)=O [Compound 47] | 1.4
19 | [2H]C([2H])([2H])NC(=O)c1nnc(NC(=O)[C@H]2CC23CC3)cc1Nc1cc(Cl)ccc1S(C)(=O)=O [Compound 10] | 1820
20 | [2H]C([2H])([2H])NC(=O)c1nnc(NC(=O)[C@H]2CC23CC3)cc1Nc1nccc(C2CC2)c1S(C)(=O)=O [Compound 101] | 11.5
21 | [2H]C([2H])([2H])NC(=O)c1nnc(NC(=O)[C@H]2CC23CC3)cc1Nc1ncc(OCCN(C)C)cc1S(C)(=O)=O [Compound 108] | 19.5
22 | [2H]C([2H])([2H])NC(=O)c1nnc(NC(=O)C2CC23CC3)cc1Nc1ncccc1S(C)(=N)=O (stereo not shown) [Compound 7] | 14.4
23 | [2H]C([2H])([2H])NC(=O)c1nnc(NC(=O)[C@H]2CC23CC3)cc1Nc1nc(C2CC2)sc1S(C)(=O)=O [Compound 123] | 19.8
24 | [2H]C([2H])([2H])NC(=O)c1nnc(NC(=O)C2CC2(C)C)cc1Nc1ncc(OC)cc1S(C)(=O)=O (stereo not shown) [Compound 27] | 24.2
25 | [2H]C([2H])([2H])NC(=O)c1nnc(NC(=O)[C@H]2CC23CC3)cc1Nc1ncc(OC(C)C)cc1S(C)(=O)=O [Compound 43] | 0.34
26 | [2H]C([2H])([2H])NC(=O)c1nnc(NC(=O)C2CC2)cc1Nc1ncc(OCCOC(F)F)cc1S(C)(=O)=O [Compound 78] | 0.8
27 | [2H]C([2H])([2H])NC(=O)c1nnc(NC(=O)[C@H]2C[C@@H](OC)C2)cc1Nc1ncc(C2CC2)cc1S(C)(=O)=O [Compound 84] | 4.1
28 | [2H]C([2H])([2H])NC(=O)c1nnc(NC(=O)[C@H]2CC23CC3)cc1Nc1nccc(OC)c1S(C)(=O)=O [Compound 34] | 548
29 | [2H]C([2H])([2H])NC(=O)c1nnc(NC(=O)[C@H]2CC23CC3)cc1Nc1ncc(OC[C@@H](C)OC)cc1S(C)(=O)=O [Compound 113] | 1.2
30 | [2H]C([2H])([2H])CC(=O)c1nnc(NC(=O)[C@H]2CC23CC3)cc1Nc1ncccc1S(C)(=O)=O [Compound 96] | 189
31 | [2H]C([2H])([2H])NC(=O)c1nnc(NC(=O)N2CCC2)cc1Nc1ncc(OC)cc1S(C)(=O)=O [Compound 89] | 7.9

Row | Compound | IC50 [nM]
32 | [2H]C([2H])([2H])NC(=O)c1nnc(NC(=O)C2CC2)cc1Nc1ncc(OCCOC=O)cc1S(C)(=O)=O [Compound 79] | 3.3
33 | [2H]C([2H])([2H])NC(=O)c1nnc(NC(=O)C2CCCC2)cc1Nc1ncc(OC)cc1S(C)(=O)=O [Compound 17] | 13.8
34 | [2H]C([2H])([2H])NC(=O)c1nnc(NC(=O)c2ccc(F)cc2)cc1Nc1ncc(OC)cc1S(C)(=O)=O [Compound 29] | 350
35 | [2H]C([2H])([2H])NC(=O)c1nnc(NC(=O)[C@H]2CC23CC3)cc1Nc1ncc(C)cc1S(C)(=O)=O [Compound 33] | 0.9
36 | [2H]C([2H])([2H])NC(=O)c1nnc(NC(=O)[C@H]2[C@@H]3COC[C@@H]32)cc1Nc1ncccc1S(C)(=O)=O [Compound 38] | 15.3
37 | [2H]C([2H])([2H])NC(=O)c1nnc(NC(=O)C2CC23CC3)nc1Nc1ccccc1S(C)(=O)=O (stereo not shown) [Compound 11] | 121
38 | [2H]C([2H])([2H])NC(=O)c1nnc(NC(=O)C2CC2)cc1Nc1ncc(OCC(C)(C)O)cc1S(C)(=O)=O [Compound 66] | 5.7
39 | [2H]C([2H])([2H])NC(=O)c1nnc(NC(=O)OC)cc1Nc1ncc(OC)cc1S(C)(=O)=O [Compound 19] | 20.9
40 | [2H]C([2H])([2H])NC(=O)c1nnc(NC(=O)[C@H]2C[C@H](OC)C2)cc1Nc1ncc(C2CC2)cc1S(C)(=O)=O [Compound 85] | 2.1
41 | [2H]C([2H])([2H])NC(=O)c1nnc(NC(=O)C2CC2)cc1Nc1ncc(O[C@H](C)COC)cc1S(C)(=O)=O [Compound 70] | 1.3
42 | [2H]C([2H])([2H])NC(=O)c1nnc(NC(=O)C2CC2)cc1Nc1ncc(OC(F)(F)F)cc1S(C)(=O)=O (single isomer, unassigned) [Compound 53] | 1.9
43 | [2H]C([2H])([2H])NC(=O)c1nnc(NC(=O)[C@H]2CC23CC3)cc1Nc1ncc(SC(F)(F)F)cc1S(C)(=O)=O [Compound 99] | 15.6
44 | [2H]C([2H])([2H])NC(=O)c1nnc(NC(=O)[C@H]2CC23CC3)cc1Nc1ncc(OCCOC)cc1S(C)(=O)=O [Compound 107] | 0.8
45 | [2H]C([2H])([2H])NC(=O)c1nnc(NC(=O)[C@H]2CC23CC3)cc1Nc1nc(C)c(F)cc1S(C)(=O)=O [Compound 125] | 7.3
46 | [2H]C([2H])([2H])NC(=O)c1nnc(NC(=O)C2(F)CC2)cc1Nc1ncc(OC)cc1S(C)(=O)=O [Compound 35] | 11
47 | [2H]C([2H])([2H])NC(=O)c1nnc(NC(=O)C2CC23CC3)cc1Nc1nccc(C)c1S(C)(=O)=O (stereo not shown) [Compound 4] | 39.3
48 | [2H]C([2H])([2H])NC(=O)c1nnc(NC(=O)NC2CC2)cc1Nc1ncccc1S(C)(=O)=O [Compound 21] | 8.9
49 | [2H]C([2H])([2H])NC(=O)c1nnc(NC(=O)[C@H]2CC23CC3)cc1Nc1ncc(N2CCOC[C@H]2C)cc1S(C)(=O)=O [Compound 121] | 1.2
50 | [2H]C([2H])([2H])NC(=O)c1nnc(NC(=O)C2CC2)cc1Nc1ncc(OC[C@H](C)OC)cc1S(C)(=O)=O [Compound 67] | 1
51 | [2H]C([2H])([2H])NC(=O)c1nnc(NC(=O)C2CC2)cc1Nc1ncc(OCCOC)cc1S(C)(=O)=O (single isomer, unassigned) [Compound 59] | 0.4
52 | [2H]C([2H])([2H])NC(=O)c1nnc(NC(=O)[C@H]2C[C@@H](NC)C2)cc1Nc1ncc(C2CC2)cc1S(C)(=O)=O [Compound 86] | 30.8
53 | [2H]C([2H])([2H])NC(=O)c1nnc(NC(=O)[C@H]2CC23CC3)cc1Nc1ncc(N2CCC2)cc1S(C)(=O)=O [Compound 133] | 1.2
54 | [2H]C([2H])([2H])NC(=O)c1nnc(NC(=O)[C@H]2CC23CC3)cc1Nc1ncc(C#N)cc1S(C)(=O)=O [Compound 126] | 17.4
55 | [2H]C([2H])([2H])NC(=O)c1nnc(NC(=O)C2CC2)cc1Nc1ncc(OC2COC2)cc1S(C)(=O)=O [Compound 63] | 1.9
56 | [2H]C([2H])([2H])NC(=O)c1cnc(NC(=O)[C@H]2CC23CC3)cc1Nc1ncc(Cl)cc1S(C)(=O)=O [Compound 119] | 6.2
57 | [2H]C([2H])([2H])NC(=O)c1nnc(NC(=O)[C@H]2CC23CC3)cc1Nc1nc2c(cc1S(C)(=O)=O)CN(C(=O)OCc1ccccc1)CC2 [Compound 39] | 3.2
58 | [2H]C([2H])([2H])NC(=O)c1nnc(NC(=O)C2CC23CC3)cc1Nc1nccc(CO)c1S(C)(=O)=O (stereo not shown) [Compound 6] | 18.8
